Laboratory results: patent publication US20260325473A1, “N-Beta-Hydroxybutyryl-Amino Acids and Related Compositions and Methods” (The Board of Trustees of the Leland Stanford Junior …, priority 2023, published 2026)
One block for each compound: values may come before it.

Columns and labels:
[1] = target: T1, CNDP2 (Mus musculus, UniProt Q9D1A2); assay: In vitro synthase (condensation) activity, lysates of CNDP2-transfected HEK293T cells; type: biochemical; set-up: expressed in transfected cells; host or cells: HEK293T (lysate); conditions: role: substrate; for amino acid selectivity for the BHB-ylation reaction: amino acid 20 mM with BHB 20 mM
T1 sequence (Q9D1A2 1-475): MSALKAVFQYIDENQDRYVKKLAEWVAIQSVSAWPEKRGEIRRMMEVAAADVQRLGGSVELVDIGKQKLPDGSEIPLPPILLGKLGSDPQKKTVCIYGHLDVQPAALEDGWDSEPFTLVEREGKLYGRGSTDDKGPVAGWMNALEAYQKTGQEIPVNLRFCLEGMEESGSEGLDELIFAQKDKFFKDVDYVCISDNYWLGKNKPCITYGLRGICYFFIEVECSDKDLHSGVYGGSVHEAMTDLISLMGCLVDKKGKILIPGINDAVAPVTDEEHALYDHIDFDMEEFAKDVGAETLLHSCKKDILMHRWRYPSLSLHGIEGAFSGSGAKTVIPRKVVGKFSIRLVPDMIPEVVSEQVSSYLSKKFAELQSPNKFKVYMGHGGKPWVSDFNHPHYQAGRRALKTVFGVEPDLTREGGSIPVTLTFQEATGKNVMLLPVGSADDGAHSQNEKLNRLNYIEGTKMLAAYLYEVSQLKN
Description: In vitro enzyme activity assays. HEK293T cells were transfected with GFP, CNDP2 or CNDP2-E166A using PolyFect (Qiagen 301105) according to the manufacturer's instructions. The medium was changed one day post-transfection. After an additional 24 h, the cells were harvested in PBS, lysed by sonication and centrifuged (10 min at 15,000 rpm) to remove debris. Supernatant was collected and protein concentrations were adjusted. The in vitro reactions were conducted in Eppendorf tubes with 100 μL of 1 mg/mL protein and 20 mM substrates for keto amino acid synthase activity assays and. Reactions were incubated for 1 h at 37° C. and 20 μl of 1 M HCl were added to acidify the medium and to protonate keto amino acids. Reactions were vortexed and 400 μL of ethyl acetate were added to each reaction. Reactions were vortexed for 30 s to extract keto amino acids into the organic layer and centrifuged at 4° C. for 10 min at 15,000 r.p.m. A total of 300 μl from the top layer was transferred to a new Eppendorf tube and dried down under a stream of nitrogen. The residue was re-suspended in 150 μl of an 2:1:1 mixture of acetonitrile: methanol: water. The mixture was centrifuged at 4° C. for 10 min at 15,000 r.p.m. and the supernatant was transferred to a LC-MS vial.

[2] = tested on: DIO mice; assay: Chronic administration in DIO mice: body weight and food intake; type: in vivo, mouse; conditions: for body weight, head-to-head keto amino acids: 5 days, vs vehicle
Description: General animal information. Animal experiments were performed according to procedure approved by the Stanford University Administrative Panel on Laboratory Animal Care (APLAC). Mice were maintained in 12-hr light-dark cycles at 22° C. and ~50% relative humidity and fed a standard irradiated rodent chow diet. Where indicated, high-fat diet (D12492, Research Diets 60% kcal from fat) and ketogenic diet (D06040601, Research Diets, 80% kcal fat/15% kcal protein/5% kcal carbohydrate) was used. Male C57BL/6J (stock no. 000664) and male C57BL/6J DIO mice (stock no. 380050) were purchased from Jackson Laboratory. Male C57BL/6NCrl (stock no. 027) mice were purchased from Charles River Laboratory. Whole body CNDP2-KO mice (catalog number, C57BL/6NCrl-Cndp2em1 (IMPC) Mbp/Mmucd, RRID: MMRRC_043492-UCD) were obtained from the Mutant Mouse Regional Resource Center, a NCRR-NIH funded strain repository. For in vivo injection of mice with metabolites, compounds were dissolved in 18:1:1 (by volume) of saline/Kolliphor EL (Sigma Aldrich)/DMSO. Compounds were administered to mice daily via intraperitoneal injections at 5 μl/g body weight at the indicated doses. For all injection experiments, mice were mock injected with the vehicle for 3-5 days until body weights have stabilized. Sample sizes were determined on the basis of previous experiments using similar methodologies. For metabolite administration experiments, mice were randomly assigned to treatment groups. Experimenters were not blinded to groups.

[3] = target: T1, CNDP2; assay: Tissue enzyme activity, WT or CNDP2-KO mouse tissue lysates; type: biochemical; conditions: role: product, BHB 20 mM + amino acid 20 mM; for synthesis activity in WT kidney and gut: 1 h, 37° C
Description: (§1) Tissue enzyme activity assays. Mouse tissues were mixed with cold PBS and homogenized using a Benchmark BeadBlaster Homogenizer at 4 °C. Protein concentrations were adjusted and the resulting crude was filtered through a 0.45-μm filter to remove insoluble materials. The in vitro reactions were conducted in Eppendorf tubes with 200 μg protein and incubation with the corresponding substrates at 37° C. for 1 hour. After that time, 10 μl of HCl and 400 μl of ethyl acetate were added in the BHB and lactate reactions and the samples were vortexed for 30 s. Reactions were centrifuged at 4° C. for 10 min at 15,000 r.p.m. and total of 300 μl from the top layer was transferred to a new Eppendorf tube and dried down under a stream of nitrogen. The residue was re-suspended in 100 μl of an 2:1:1 mixture of acetonitrile: methanol: water. The mixture was centrifuged at 4° C. for 10 min at 15,000 r.p.m. and the supernatant was transferred to a LC-MS vial. For carnosine reactions, the reactions were not acidified and were directly quenched with 300 μl of an 2:1:1 mixture of acetonitrile: methanol: water after the 1 h incubation and vortexed for 30 s. The mixture was centrifuged at 4° C. for 10 min at 15,000 r.p.m. and the supernatant was transferred to a LC-MS vial.

[4] = Keto-Med study, plasma metabolites; type: in vivo; conditions: human; 4 weeks WFKD vs baseline
Description: (§2) Targeted metabolomics. Targeted measurements were performed using an Agilent 6470 triple quadrupole LC-MS instrument. MS analysis was performed using AJS in negative mode. The AJS source parameters were set as follows: the dry gas temperature was set at 250° C. with a gas flow of 12 l/min and the nebulizer pressure at 25 psi; the sheath gas temperature was set to 300° C. with the sheath gas flow set at 12 l/min; and the capillary voltage was set to 3,500 V. Separation of polar metabolites was performed as described above in the ‘Untargeted measurements of metabolites by LC-MS’ section. Multiple reaction monitoring was performed for the indicated metabolites with the listed dwell times, fragmentor voltage, collision energies, cell accelerator voltages and polarities. Quantification of the endogenous metabolite concentrations were performed by generating a standard curve with known concentrations of each metabolite. Metabolite standards were analyzed alongside the plasma samples using the same targeted triple quadrupole LC/MS method. A calibration standard curve generated from the metabolite standard concentrations and total peak areas were used to calculate the concentrations of each endogenous metabolite. The dilution of the plasma during the sample preparation was also taken into account for the quantification.
Keto-Med study. Keto-Med was a single-site, randomized, crossover, interventional trial comparing 2 metabolically distinct diets (well-formulated ketogenic diet, WFKD; and Mediterranean-plus diet, Med-Plus) among individuals with prediabetes and T2DM. Forty participants aged ≥18 years with prediabetes or T2DM followed the WFKD and the Med-Plus for 12 weeks each, in random order. Participants were randomly assigned into 1 of 2 different diet sequences: WFKD for 12 weeks (phase 1) and then the Med-Plus for 12 weeks (phase 2), or the opposite order. Ad libitum intake was advised, and participants were guided to follow 2 sets of dietary guidelines that shared 3 important similarities (incorporating nonstarchy vegetables and avoiding added sugars and refined grains) and 3 important differences (incorporating compared with avoiding legumes, fruits, and whole, intact grains). During the WFKD phase, participants were counseled to sustain nutritional ketosis by limiting carbohydrates to 20-50 g/day and keeping proteins to ~1.5 g/kg ideal body weight/day, with the remaining kcals coming from fats. Participants were also instructed to consume >3 servings/day of nonstarchy vegetables and maintain adequate mineral and fluid intake for the ketogenic state (sodium, 3-5 g/day; potassium, 3-4 g/day). […]

[5] = Human ketone ester supplementation study, plasma metabolites; type: in vivo; conditions: ketone ester drink cohort
Description: as §2
Human ketone ester supplementation study. Following screening, eligible subjects participated in a randomized, counter-balanced, double-blind, placebo-controlled crossover trial comparing BHB supplementation versus placebo, separated by a minimum of 2 days (ClinicalTrials.gov ID NCT04194450). Pre-menopausal women were tested in the follicular phase (days 3-9). Participants were asked to refrain from structured exercise and alcohol, limit physical activity, and follow a standardized diet (~50% carbohydrate, ~30% fat, ~20% protein) on the day before each trial. After refraining from medication use for 24 hours, participants reported to the Exercise, Metabolism and Inflammation Laboratory at the University of British Columbia-Okanagan in an overnight fasted state. Anthropometric measurements were obtained prior to insertion of an indwelling intravenous catheter into the antecubital vein for repeated blood sampling. Blood was collected into EDTA tubes (BD, 367863) and immediately centrifuged at 2000 rpm for 15 min and the top layer of plasma was aliquoted and frozen at −80 °C. After baseline (0) blood sample collection, the oral BHB supplement or placebo was consumed in liquid form (~30-65 mL). The BHB supplement (H.V.M.N®, USA) in the form of the ketone monoester (R)-3-hydroxybutyl (R)-3-hydroxybutyrate (AG®, TDeltaS, Oxford, UK) contained 0.4 g mL-1 BHB, natural flavoring, and <2% stevia leaf extract. The taste-matched placebo drink contained the same natural flavoring as the ketone supplement, stevia leaf extract, 5 mL of Bittrex stock (0.005 g of denatonium benzoate powder in 40 ml of water) and 1.5 mL of arrowroot stock (2 g of arrowroot powder in 50 ml of water) to match the bitter flavor and viscosity of the ketone monoester. Supplements were dispensed into opaque 80 ml bottles with volume calculated for 0.3 g BHB/kg body weight and labelled either A or B by a third-party researcher. Blinding was maintained until completion of data collection and analyses.

[6] = target: T1, CNDP2; assay: Carnosine hydrolysis (carnosinase activity) in WT or CNDP2-KO mouse tissue lysates; type: biochemical; conditions: role: substrate, 10 mM carnosine
Description: as §1

Structure (SMILES): CC(CO)C(=O)O (centres unmarked) [3-HIB, 3-hydroxisobutyric acid]
CNDP2-dependent condensation activity with C4-hydroxycarboxylic acid isomers ([1]; with phenylalanine): not detected

Structure (SMILES): CC(O)CC(=O)N[C@@H](Cc1c[nH]cn1)C(=O)O (some centres unmarked) [BHB-His]
food intake and body weight, related metabolites and dipeptides ([2]; 50 mg/kg IP, 9 days): failed to reduce food intake or body weight

Structure (SMILES): CC(C)C[C@H](NC(=O)CC(C)O)C(=O)O (some centres unmarked) [BHB-Leu, N-betahydroxybutyryl-leucine]
body weight, head-to-head keto amino acids ([2]; 50 mg/kg/day IP): effective in suppressing body weight
BHB-amino acid synthesis activity in CNDP2-KO kidney and gut [3]: largely abolished
synthesis activity in WT kidney and gut [3]: highest BHB-amino acid synthesis activity

Structure (SMILES): CSCC[C@H](NC(=O)CC(C)O)C(=O)O (some centres unmarked) [BHB-Met, N-betahydroxybutyryl-methionine]
body weight, head-to-head keto amino acids ([2]; 50 mg/kg/day IP): effective in suppressing body weight
BHB-amino acid synthesis activity in CNDP2-KO kidney and gut [3]: largely abolished
synthesis activity in WT kidney and gut [3]: highest BHB-amino acid synthesis activity

Structure (SMILES): C[C@@H](O)CC(=O)N[C@@H](CCC(N)=O)C(=O)O [Keto-Gln]
induction of plasma keto amino acids on WFKD [4]: Robust induction
induction by ketone ester drink [5]: had not been observed to be induced by ketone ester drink

Structure (SMILES): C[C@@H](O)CC(=O)N[C@H](C(=O)O)[C@@H](C)O [Keto-Thr]
induction of plasma keto amino acids on WFKD [4]: Robust induction
induction by ketone ester drink [5]: had not been observed to be induced by ketone ester drink

Structure (SMILES): NCCC(=O)N[C@@H](Cc1cnc[nH]1)C(=O)O [carnosine]
carnosine hydrolysis across tissues [6]: highest activity in liver and quadriceps and little activity in the kidney, gut, and brain
carnosinase activity, effect of CNDP2 ablation ([6]; CNDP2-KO vs WT): not sensitive to genetic ablation of CNDP2

Continued, in another order:

amino acid selectivity for the BHB-ylation reaction [1]: CNDP2 catalyzed BHB-ylation
Structure (SMILES): CC[C@H](C)[C@H](N)C(=O)O [isoleucine]

product formed with lactate and phenylalanine as only substrates ([1]; lactate alone with 20 mM phenylalanine): exclusive production of Lac-Phe
Structure (SMILES): C[C@H](O)C(=O)O [lactate]

amino acid selectivity for the BHB-ylation reaction [1]: CNDP2 catalyzed BHB-ylation
Structure (SMILES): CC(C)C[C@H](N)C(=O)O [leucine]

amino acid selectivity for the BHB-ylation reaction [1]: CNDP2 catalyzed BHB-ylation
Structure (SMILES): N[C@@H](Cc1ccccc1)C(=O)O [phenylalanine, reference compound]
body weight and food intake, conjugate vs components ([2]; 50 mg/kg/day IP, BHB or phenylalanine at the same doses, 9 days): without effect

amino acid selectivity for the BHB-ylation reaction [1]: CNDP2 catalyzed BHB-ylation
Structure (SMILES): CC(C)[C@H](N)C(=O)O [valine]
